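Each compound was tested at five concentrations against cells in 96-well plates for 48 hours. GI50 marks 50% less growth.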 Activity calls are given as the source filed them. No stated cut-off is given here; in the data, active = GI50 up to about 1.1 µM and inactive = higher.

Assay in all cases: growth of human tumour cells (NCI), 48 h
Test [1] relates to RXF 631.
Test [2] relates to LXFL 529.
The test system of test [3] is SNB-78.
Test [4] deals with KM-20L2.
Test [5] relates to HOP-18.
For test [6], the system named is DMS-114.
The subject of test [7] is XF498.

Turning to `CCOC(=O)C(=O)Nc1c(C(C)C)cccc1C(C)C`, the GI50 in test [1], in test [2], in test [3], in test [4], in test [5] and in test [6] was > 100 µM (inactive) throughout. For the same compound, the GI50 in test [7] was 54.6 µM (inactive).
`O=S1(=O)CSc2ccc3ccccc3c2-c2c1ccc1ccccc21`: the GI50 in test [1], in test [2], in test [3], in test [5], in test [6] and in test [7] was > 100 µM (inactive) throughout.
As for `O=[N+]([O-])c1ccc(-c2csc(=[N+]3CCCCC3)s2)cc1`, the GI50 in test [1] was 87.5 µM (inactive); in test [2] it was 5.93 µM (inactive); in test [3] it was 44.1 µM (inactive); in test [4], 6.1 µM (inactive); in test [5] it was > 100 µM (inactive); in test [6] it was 2.13 µM (inactive). Further, the GI50 in test [7] was 19.5 µM (inactive).
`Cc1cc(C)nc(Sc2c([N+](=O)[O-])ncn2C)n1`: the GI50 was > 100 µM (inactive) in test [1]; 99.8 µM (inactive) in test [2]; > 100 µM (inactive) in test [3]; 20.6 µM (inactive) in test [5]; > 100 µM (inactive) in test [6]; > 100 µM (inactive) in test [7].
As for `CC(C)(C)CC(C)(C)c1ccc(OCCOCC[N+](C)(C)Cc2ccccc2)cc1` [BENZETHONIUM CHLORIDE], the GI50 was 11.9 µM (inactive) in test [1]; 1.32 µM (inactive) in test [2]; 1.63 µM (inactive) in test [3]; 3.89 µM (inactive) in test [4]; 2.79 µM (inactive) in test [5]; 1.15 µM (inactive) in test [6]. For the same compound, the GI50 in test [7] is 0.377 µM (active).

The values are drawn from ChEMBL document CHEMBL1201862, “PubChem BioAssay data set” (2004).
